Settings: Liquid; for viscosity: Capillary tube (Ostwald / Ubbelohde) method; for mass density: isochoric method

CCCCCCC [heptane]
Settings	mass density [kg/m3]	viscosity [mPa·s]
298.24 K, 100 kPa	–	0.388
302.46 K, 100 kPa	675.91	–
306.79 K, 5000 kPa	–	0.3779
306.79 K, 10000 kPa	–	0.4013
307.61 K, 4760 kPa	676.1	–
307.61 K, 11941 kPa	683.2	–
314.57 K, 100 kPa	665.62	–
323.93 K, 100 kPa	–	0.2979
329.71 K, 100 kPa	652.43	–
337.54 K, 5000 kPa	–	0.28
337.54 K, 10000 kPa	–	0.2978
342.94 K, 100 kPa	640.61	–
348.64 K, 100 kPa	–	0.2354
353.76 K, 100 kPa	630.86	–
369.35 K, 5000 kPa	–	0.2116
369.35 K, 10000 kPa	–	0.2259
387 K, 5783 kPa	610	–
387 K, 12460 kPa	620.7	–
407.85 K, 5000 kPa	–	0.1595
407.85 K, 10000 kPa	–	0.1718
449.64 K, 5000 kPa	–	0.122
449.64 K, 10000 kPa	–	0.1338
450.12 K, 4350 kPa	543.7	–
450.12 K, 11492 kPa	564.4	–
473.54 K, 5000 kPa	–	0.1012
473.54 K, 10000 kPa	–	0.113
500.47 K, 6791 kPa	492.7	–
500.47 K, 10720 kPa	512.8	–

CCCCCCCC [octane]
Settings	mass density [kg/m3]	viscosity [mPa·s]
298.24 K, 100 kPa	–	0.508
301.84 K, 100 kPa	695.24	–
308.72 K, 5000 kPa	–	0.4786
308.72 K, 10000 kPa	–	0.5043
311.89 K, 4680 kPa	691.6	–
311.89 K, 10642 kPa	697.4	–
316.49 K, 100 kPa	683.55	–
323.93 K, 100 kPa	–	0.3829
329.76 K, 100 kPa	672.69	–
340.94 K, 100 kPa	663.24	–
348.64 K, 100 kPa	–	0.3034
349.46 K, 5000 kPa	–	0.3187
349.46 K, 10000 kPa	–	0.3364
358.76 K, 100 kPa	648.1	–
367.61 K, 5873 kPa	648.8	–
367.61 K, 11461 kPa	656.2	–
394.81 K, 5000 kPa	–	0.2197
394.81 K, 10000 kPa	–	0.2334
436.86 K, 5000 kPa	–	0.1672
436.86 K, 10000 kPa	–	0.1799
437.97 K, 6430 kPa	589.6	–
437.97 K, 11084 kPa	599.5	–
467.46 K, 5000 kPa	–	0.1338
467.46 K, 10000 kPa	–	0.1458
516.64 K, 5712 kPa	505.4	–
516.64 K, 9791 kPa	525.2	–
